Results reported in EP0589484A1, “1,2-Ethanediol derivative and salt thereof, process for producing the same, and cerebral function-improving agent comprising the same” (TOYAMA CHEMICAL CO., LTD., priority 1989, dated 1990).
Counter-ions that a name gives are not always drawn. Like-named read-outs stand apart in the source and are kept apart here.

Key:
acetylcholinesterase = molecular target: T1, acetylcholinesterase (Mus musculus, UniProt P21836); assay: Inhibitory activity for acetylcholinesterase (method of Ellman et al.); format: biochemical
T1 construct: a mouse cerebral homogenate (as an acetylcholinesterase source); from tissue; host or cells: mouse cerebrum (homogenate)
T1 sequence (P21836 32-614): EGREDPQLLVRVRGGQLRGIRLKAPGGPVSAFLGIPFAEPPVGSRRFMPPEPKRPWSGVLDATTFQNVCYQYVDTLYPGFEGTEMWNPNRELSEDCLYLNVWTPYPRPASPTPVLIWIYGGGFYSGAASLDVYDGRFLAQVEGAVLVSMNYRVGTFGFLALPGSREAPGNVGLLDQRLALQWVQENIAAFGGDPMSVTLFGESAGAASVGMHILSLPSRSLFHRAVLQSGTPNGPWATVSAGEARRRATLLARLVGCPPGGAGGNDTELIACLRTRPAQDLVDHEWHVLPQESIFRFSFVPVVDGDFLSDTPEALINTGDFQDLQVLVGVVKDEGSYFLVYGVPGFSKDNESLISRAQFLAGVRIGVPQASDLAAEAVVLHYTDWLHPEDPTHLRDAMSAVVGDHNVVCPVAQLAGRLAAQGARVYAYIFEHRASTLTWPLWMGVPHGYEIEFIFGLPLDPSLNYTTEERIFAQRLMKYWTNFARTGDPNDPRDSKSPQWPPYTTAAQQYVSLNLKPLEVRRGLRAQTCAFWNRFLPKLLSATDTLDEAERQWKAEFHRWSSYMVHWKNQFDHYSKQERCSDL
Method: A test was conducted in accordance with the method of Ellman et al. [Biochem. Pharmacol., vol. 7, pp. 88-95, 1961].
That is, acetylthiocholine (as a substrate) was added to a phosphate buffer solution containing 5,5'-dithiobis-(2-nitrobenzoic acid) (DTNB), a test compound and a mouse cerebral homogenate (as an acetylcholinesterase source). The resulting mixture was incubated, and the amount of the resulting 5-thio-2-nitrobenzoic acid was photometrically measured at 412 nm.
The inhibitory activity for acetylcholinesterase of the test compound was expressed by the inhibition (%) when the final concentration of the test compound was 10 µg/ml.

ddY male mice = assay: Acute toxicity; format: in vivo, mouse; conditions: 50 mg/kg intravenously, group of 3 ddY male mice
Excerpt: A test compound dissolved in physiological saline was intravenously administered to a group of 3 ddY male mice (5-6 weeks old) to examine the acute toxicity of the test compound.

ddY female mouse = assay: Effect of test compound on hypoxia (antihypoxic activity); format: in vivo; conditions: po, read-out: Antihypoxic activity (%)
Method: A test compound dissolved in physiological saline (100 mg/kg) was orally administered to a ddY female mouse (5-6 weeks old, each group consisting of 10 mice). After 1 (or 30 minutes*) hour from the administration, each mouse was placed in a 300-ml glass chamber, and a gas mixture consisting of 4% of oxygen and 96% of nitrogen was passed through the chamber at a rate of 5 liters/min. A time from the start of gas passing to the death of each mouse was measured.
To a control mice group was orally administered only physiological saline.
The antihypoxic activity of the test compound was calculated from the following formula: [formula]

[1] = final concentration of the test compound 10 µg/ml, mouse cerebral homogenate, read-out: Inhibition (%)
[2] = 0.5 h, 100 mg/kg orally, placed in chamber (4% oxygen, 96% nitrogen) after 30 minutes from the administration (values marked *), survival time relative to control
[3] = 100 mg/kg orally, placed in chamber (4% oxygen, 96% nitrogen) after 1 hour from the administration, survival time relative to control

| Structure (SMILES) | inhibition at 10 µg/mL (acetylcholinesterase; [1]) [%] | response vs control in vivo at 100 mg/kg (ddY female mouse; [2]) [%] | other results |
| --- | --- | --- | --- |
| OC(COCCC1CCN(Cc2ccccc2)CC1)c1ccc(Oc2ccccc2)cc1 (centres unmarked) [compound 78] | 90 | – | – |
| CN(C)CCOCC(O)c1ccc(Oc2ccccc2Cl)cc1 (centres unmarked) [compound 70] | 91 | – | Acute toxicity (ddY male mice): no death case |
| O=C1CCc2cc(C(O)COCc3cccnc3)ccc2N1 (centres unmarked) [compound 341] | 61 | – | – |
| CN(C)CCOCC(O)c1ccc(F)cc1 (centres unmarked) [compound 38] | 36 | – | Acute toxicity (ddY male mice): no death case |
| OC(COCCN1CCN(c2ncccn2)CC1)c1ccc2sccc2c1 (centres unmarked) [compound 352] | 26 | – | – |
| CN(C)CCOCC(O)c1ccc(OCc2ccccc2)cc1 (centres unmarked) [Compound No. 48, 1-(4-benzyloxyphenyl)-2-[2-(N,N-dimethylamino)ethoxy]ethanol hydrochloride] | 51 | – | response vs control in vivo at 100 mg/kg (ddY female mouse; 1 h): 160% |
| OC(COCCC1CCN(Cc2ccccc2)CC1)c1ccccc1 (centres unmarked) [compound 60] | 71 | – | – |
| CN(C)CCOCC(O)c1ccc(SCc2ccccc2)cc1 (centres unmarked) [compound 222, 1-(4-benzylthiophenyl)-2-[2-(N,N-dimethylamino)ethoxy]ethanol hydrochloride] | 83 | – | response vs control in vivo at 100 mg/kg (ddY female mouse; 0.5 h): 152% |
| Cc1cc(C)cc(Oc2ccc(C(O)COCCN(C)C)cc2)c1 (centres unmarked) [compound 72] | 92 | – | – |
| OC(COCCC1CCN(Cc2ccccc2)CC1)c1ccc2sccc2c1 (centres unmarked) [compound 342] | 67 | 157 | – |
| CN(C)CCOCC(O)c1ccc(Oc2ccccc2)cc1 (centres unmarked) [Compound No. 54, 2-[2-(N,N-dimethylamino)ethoxy]-1-[4-(4-phenyloxy)phenyl]ethanol hydrochloride] | 83 | – | response vs control in vivo at 100 mg/kg (ddY female mouse; [3]): 137%; Acute toxicity (ddY male mice): no death case |
| CN(C)CCOCC(O)c1ccc([N+](=O)[O-])s1 (centres unmarked) [compound 405, 1-(5-nitro-2-thienyl)-2-[2-(N,N-dimethylamino)ethoxy]ethanol] | 59 | 137 | – |
| CNc1nc(Cl)c(C(O)COCCN(C)C)cc1F (centres unmarked) [compound 377] | 23 | 221 | Acute toxicity (ddY male mice): no death case |
| CN(C)CCOCC(O)c1ccc(Oc2ccc(F)cc2)cc1 (centres unmarked) [compound 67] | 90 | 247 | Acute toxicity (ddY male mice): no death case |
| CN(C)CCOCC(O)c1cccc2ccccc12 (centres unmarked) [compound 228, 2-[2-(N,N-dimethylamino)ethoxy]-1-(1-naphthyl)ethanol hydrochloride] | 30 | – | response vs control in vivo at 100 mg/kg (ddY female mouse; 1 h): 144% |
| CN(C)CCOCC(O)c1ccc(Cl)c2ccccc12 (centres unmarked) [compound 230] | 25 | – | response vs control in vivo at 100 mg/kg (ddY female mouse; [3]): 177% |
| COc1ccc(Oc2ccc(C(O)COCCN(C)C)cc2)cc1 (centres unmarked) [compound 71] | 87 | – | response vs control in vivo at 100 mg/kg (ddY female mouse; [3]): 147%; Acute toxicity (ddY male mice): no death case |
| CC(=O)OC(COCCN(C)C)c1cccc(OC(=O)Nc2cccc(Cl)c2)c1.Cl (centres unmarked) [compound 190, 1-acetoxy-1-[3-(3-chlorophenylcarbamoyloxy)phenyl]-2-[2-(N,N-dimethylamino)ethoxy]ethane hydrochloride] | – | – | Acute toxicity (ddY male mice): no death case; inhibition at 10 µg/mL (acetylcholinesterase): 76% |
| COc1ccc(C(O)COCCN(C)C)c2ccccc12 (centres unmarked) [compound 239] | 22 | – | response vs control in vivo at 100 mg/kg (ddY female mouse; [3]): 150% |
| CN(C)CCCOCC(O)c1ccc2sccc2c1 (centres unmarked) [compound 336] | 21 | 224 | – |
| CN(C)CCOCC(O)c1ccc(-c2cccs2)cc1 (centres unmarked) [compound 224] | 36 | – | response vs control in vivo at 100 mg/kg (ddY female mouse; [3]): 155% |
| CN(C)CCOCC(O)c1ccc(OCc2ccncc2)cc1 (centres unmarked) [compound 86] | 50 | 130 | – |
| CN(C)CCOCC(O)c1cccc(Cc2ccccc2)c1 (centres unmarked) [compound 58] | 45 | – | response vs control in vivo at 100 mg/kg (ddY female mouse; [3]): 133% |
| CCN(CC)CCOCC(O)c1cccc(C)c1 (centres unmarked) [compound 90] | 52 | – | – |
| CN(C)CCOC[C@H](O)c1ccc(OCc2ccccc2)cc1 [compound 103] | 36 | – | – |
| CN(C)CCOCC(O)c1ccc(CCc2ccccc2)cc1 (centres unmarked) [compound 89] | 44 | 156 | – |
| Cc1ccc(Oc2ccc(C(O)COCCN(C)C)cc2)cc1 (centres unmarked) [compound 83] | 93 | 177 | – |
| Cc1cccc(C(O)COCCC2CCN(Cc3ccccc3)CC2)c1 (centres unmarked) [compound 61] | 89 | 184 | – |
